According to paper PMC6214108, “Synthesis and In Vitro Antitumor Activity of Novel Bivalent β-Carboline-3-carboxylic Acid Derivatives with DNA as a Potential Target” (International Journal of Molecular Sciences, 2018):

Legend:
Format in all cases: cell-based
[1] = system: SMMC-7721 (liver carcinoma) cell line; experiment: MTT cytotoxicity assay, SMMC-7721; conditions: Homo sapiens, 48 h, mean of three independent experiments, read-out: IC50 (μM) Mean ± SD, SMMC-7721
Experimental: (§1) All cell lines (A549, SGC-7901, Hela, SMMC-7721, and MCF-7) were purchased from the American Type Culture Collection (Manassas, VA, USA), and were cultured in Dulbecco’s modified Eagle’s medium (DMEM, HycloneLaboratories Inc., Logan, Utah, USA) supplemented with 10% fetal bovine serum (FBS, Gibco&Invitrogen, Carlsbad, CA, USA) at 37 °C and 5% CO2.
(§2) The cytotoxic activities of β-carboline-3-carboxylic acid derivatives were investigated by the MTT method, as previously described. Cells (1 × 10^4 cells per well) seeded into 96-well plates (JET, Guangzhou, China) were incubated with DMEM containing various concentrations (2.5, 5, 10, 20, 40, and 80 μM) of β-carbolines (4A, 4B, 4C, 4D, 6a-6f, 6g-6l, 6m-6r, and 6s-6x) for 48 h at 37 °C and 5% CO2. Then, 10 µL of 5 mg/mL MTT reagent dissolved in PBS (Phosphate buffered saline) was added per well, and plates were incubated at 37 °C for 4 h. The medium was carefully removed and 100 µL dimethyl sulfoxide (DMSO) was added to dissolve the formazan crystals. The absorbance was measured at 490 nm with a microplate reader (ThermoFisher Scientific Inc., Waltham, MA, USA). The β-carbolines were dissolved in DMSO as stock solutions (10 mM) at −20 °C, and diluted in the final experimental solution using DMEM before use. A549 (lung carcinoma), SGC-7901 (gastric carcinoma), Hela (cervical carcinoma), SMMC-7721 (liver carcinoma), and MCF-7 (breast carcinoma) cell lines were used for the antitumor activity screening. The IC50 values were the mean values of three independent experiments.

[2] = system: MCF-7 (breast carcinoma) cell line; experiment: MTT cytotoxicity assay, MCF-7; conditions: Homo sapiens, MCF7, 48 h, mean of three independent experiments, read-out: IC50 (μM) Mean ± SD, MCF-7
Experimental: as §1, §2

[3] = system: MRC5 (normal lung cell) cell line; experiment: MTT cytotoxicity assay, MRC5; conditions: Homo sapiens, 48 h
Experimental: [The procedure below names another cell line; the source lists this cell line under the same test.] as §2

A549 cells = experiment: Cell cycle assay, PI single staining, flow cytometry; conditions: 48 h
Experimental: The cell cycle was determined by PI single staining. A549 cells (1 × 10^6 cells per well) seeded into 6-well plates (JET, Guangzhou, China) were incubated with DMEM containing various concentrations (2, 4, and 8 μM) of β-carbolines (4B, 6i, 4D, and 6u) for 48 h at 37 °C and 5% CO2. The cells were harvested, washed with pre-cooled PBS (4 °C), and fixed with pre-cooled 90% ethanol (4 °C). Then, the cells were incubated with 20 μL RNAse (30 μg/mL) and 20 μL PI (50 μg/mL) (Sigma Aldrich, Saint Louis, MO, USA) for 30 min at 37 °C. The samples were analyzed using flow cytometry (BD FACSCalibur, San Jose, CA, USA).
Figure 2 The cell cycle was detected by flow cytometry using PI single staining. A549 cells were treated with 4B, 6i, 4D, and 6u at 2, 4, and 8 μM for 48 h, and then stained with PI for 30 min at 37 °C. The proportions of cells containing different DNA content were analyzed by FCS Express 5.0 (De Novo Software, Thornhill, Canada).

SMILES | IC50 [1] | IC50 [2] | IC50 [3] | Percentage of Cell Cycles (%) G1 (A549 cells; A549, 2 μM) | Percentage of Cell Cycles (%) G2/M (A549 cells; A549, 2 μM) | Percentage of Cell Cycles (%) S (A549 cells; A549, 2 μM) | Percentage of Cell Cycles (%) SubG1 (A549 cells; A549, 2 μM) | Percentage of Cell Cycles (%) G1 (A549 cells; A549, 4 μM) | Percentage of Cell Cycles (%) G2/M (A549 cells; A549, 4 μM) | Percentage of Cell Cycles (%) S (A549 cells; A549, 4 μM) | Percentage of Cell Cycles (%) SubG1 (A549 cells; A549, 4 μM) | Percentage of Cell Cycles (%) G1 (A549 cells; A549, 8 μM) | Percentage of Cell Cycles (%) G2/M (A549 cells; A549, 8 μM) | Percentage of Cell Cycles (%) S (A549 cells; A549, 8 μM) | Percentage of Cell Cycles (%) SubG1 (A549 cells; A549, 8 μM)
COC(=O)c1cc2c3ccccc3n(Cc3ccccc3F)c2cn1 [Compound 4D] | 35.6 ± 1.33 µM | 53.9 ± 2.02 µM | 35.38 ± 0.01 µM | 56.89% | 18.94% | 24.17% | 6.41% | 47.21% | 35.46% | 17.33% | 39.03% | 88.01% | 0.3% | 11.69% | 46.29%
Cc1ccccc1Cn1c2ccccc2c2cc(C(=O)OCCCCCOC(=O)c3cc4c5ccccc5n(Cc5ccccc5C)c4cn3)ncc21 [Compound 6i] | 14.2 ± 0.28 µM | 59.3 ± 5.86 µM | 37.99 ± 0.1 µM | 57.38% | 10.54% | 32.08% | 6.86% | 45.19% | 42.40% | 12.41% | 26.33% | 46.64% | 0.06% | 53.30% | 21.32%
COC(=O)c1cc2c3ccccc3n(Cc3ccccc3C)c2cn1 [Compound 4B] | > 80 µM | > 80 µM | 51.78 ± 0.1 µM | 59.38% | 15.46% | 25.16% | 6.56% | 43.06% | 46.96% | 9.98% | 10.49% | 52.09% | 2.1% | 45.81% | 4.15%
O=C(OCCCCCOC(=O)c1cc2c3ccccc3n(Cc3ccccc3F)c2cn1)c1cc2c3ccccc3n(Cc3ccccc3F)c2cn1 [Compound 6u] | 16.68 ± 0.11 µM | 36 ± 2.99 µM | 39.89 ± 0.05 µM | 56.24% | 19.97% | 23.79% | 6.84% | 47.06% | 40.34% | 12.60% | 46.25% | 81.62% | 18.30% | 0.08% | 44.92%
